Data reported in patent US7915009B2, “Activation and inhibition of the immune system” (The Mathilda and Terence Kennedy Institute of Rheumatology …, priority 1999, dated 2011).
Entries after “also recorded” stand apart in the source; their conditions may differ. Where a SMILES comes first, the peptide text is derived from it. The star is where a group is joined. Cbz = O=C(OCc1ccccc1)*; OtBu = CC(C)(C)O*

Tests used:
[1] = system: allo-lymphocytes; assay: Cytokine production of allo-lymphocytes co-cultured with PSI-treated DC (ELISA); assay type: cell-based, human
Description: FIG. 8. Cytokine production of allo-lymphocytes co-cultured with vehicle treated or PSI treated DC. Mature DC was treated with vehicle or PSI (1 μM) as described above. Allo-lymphocytes and each DC were plated at 2×10^5 cells per well on a 96 well plate and stimulated with PMA (10 nM) or left unstimulated for […].
(§1) Cells were pre-treated with vehicle or 1 μM of PSI for 4 h, or infected with adenoviral vectors for 2 h. PSI-treated DC were then directly used in experiments whereas infected cells were further cultured for 2 days to allow overexpression of the relevant protein to occur. 24 h after stimulation of the cells, culture supernatants were collected and kept frozen. Cytokine levels in cell culture supernatants were measured by standard 2 or 3 layer sandwich ELISA techniques using specific monoclonal and polyclonal antibodies for TNFα, IL-4, IL-6, IL-8, IL-12 and IFNγ. Antibody pairs and standards for these assays have been purchased from Pharmingen, with the exception of IL-12 reagents that were gifted from the Genetics Institute (Boston, USA).

[2] = system: mature DC; assay: Cytokine production of DC treated with PSI (ELISA); assay type: cell-based, human; details: PSI 1 μM
Description: FIG. 9. Cytokine productions of DC treated with vehicle or PSI. Mature DC was treated with vehicle or PSI (1 μM) as described above. Each DC and allo-lymphocytes were plated at 2×10^5 cells per well on a 96 well plate and stimulated with PMA (10 nM) or left unstimulated for 48 hr. Supernatants were analysed for IL-6, IL-8, IL-12 and TNFα by ELISA.
as §1

[3] = system: allo-lymphocytes; assay: Surface antigens on allo-lymphocytes cultured with PSI-treated DC (FACScan); assay type: cell-based, human
Description: FIG. 7. […] Lymphocytes were cultured for 6 days as the same conditions with allo-MLR experiment using vehicle treated DC (green line), or PSI (1 μM) treated DC (red line). Each lymphocytes were phenotyped with MoAbs, CD3, CD25 (PE conjugated; Pharmingen), (CD54) (PE conjugated; Serotec), CD50 (FITC conjugated; Serotec) and analysed by FACScan.
(§2) For FACS staining, cells were first harvested. For adherent cells where surface receptors need to be intact, a warm 2% EDTA in PBS solution was used for 20 min at 37° C. After cells were in solution, they were washed once and then resuspended in ice-cold FACS washing buffer. All subsequent incubations were performed at 4° C. For each analysis, 5×10^5 cells were incubated with the relevant antigen-specific antibody or isotype control for 30 min and then washed twice with FACS washing buffer. Cells were then examined by flow cytometry. cells were ready for analysis on a FACScan flow cytometer (Becton and Dickinson) by using the CellQuest (Becton Dickinson). Directly conjugated monoclonal antibodies to HLA-DR, HLA-A,B,C, CD80, CD86, CD3, CD14 and CD25 were purchased by Pharmingen, San Diego, USA).

[4] = system: allo-lymphocytes; assay: Allo-MLR with mixtures of PSI-treated and vehicle-treated DC; assay type: cell-based, human; details: judged from slope of proliferative response curves, PSI 1 μM
Description: FIG. 5. PSI pre-treated DC inhibit the growing ability of lymphocytes in allo-MLR. Mature DC was treated with PSI as described above. After washing, each DC was mixed to make different compositions: vehicle treated DC only (∘), ¼ number of PSI treated DC mixed with ¾ vehicle treated DC (●), ⅛ number of PSI treated DC mixed with […] vehicle treated DC (▪), or PSI treated DC only (▴). Graded number of each mixture and 10^5 cells of allo-lymphocytes were plated on a 96 well plate. Proliferation was determined at day 6 by ^3H-TdR uptake assay.
(§3) A means of detecting whether PSI-DC were generating inhibitory effects is to culture T cells with a mixture of PSI treated and untreated DC. […] Next we investigated whether exposure to PSI-DC would induce long term unresponsiveness in the T cells. T cells were exposed to normal or PSI-DC as previously described after which the T cells were collected and were treated with a DC for a second time and the proliferative response measured (FIG. 6). […] This would indicate that the effects of exposure to PSI-DC are prolonged and the T cells acquire a non-responsive or anergic state.

[5] = system: mature DC; assay: Cell viability of DC treated with PSI, propidium iodide staining (FACS); assay type: cell-based, human; details: PSI for 4 h, analysed 6 days after treatment
Description: FIG. 1. Cell viability of DC treated with PSI. Mature DC was either left untreated, or treated with various doses of PSI for 4 h. After wash, cells were cultured in RPMI 1640 supplemented as described without monocyte condition medium. 6 days after treatment, cells were resuspended in PBS containing 10 μg/ml. Of propidium iodide PI and analysed on FACS scan.
(§4) PSI is an inhibitor of proteosome activity and as such is capable of inhibiting induced IκB degradation and subsequent NF-κB activation. We used PSI to examine the function of NFκB in dendritic cell (DC) activity particularly in relation to antigen presentation and activation of T cells. We have previously shown that PSI is capable of inhibiting NFκB activation at concentrations up to 1 μM. To test the effect of PSI on DC viability mature DC were incubated with concentrations of PSI, ranging from 0.1 μM to 5 μM. […] To assess the role of NFκB in DC function, mature DC were incubated with 0.3 μM, 0.5 μM or 1 μM PSI for […] and the cells washed. As PSI is an activated peptide that binds irreversibly to the proteosomes, the function of the DC can be assessed over the 6 day period of the MLR despite the short period of drug exposure.

[6] = system: mature DC; assay: Allogeneic MLR with PSI-treated DC, 3H-TdR uptake; assay type: cell-based, human; details: day 6
Description: FIG. 2. Immunostimulatory capacity of DC treated with the proteosome inhibitor Cbz-Ile-Glu(O-tert-bytyl)-Ala-leucinal (PSI). Mature DC was treated with PSI (0.1 μM: ▴), (0.5 μM: ▪), (1, μM: ●) or without PSI (∘) for 4 h. After wash, different numbers of each category of DC and […] of allo-lymphocytes were plated on a 96 well plate. Proliferation was determined at day 6 using ^3H-TdR uptake assay. (Each point represents mean+/−SEM from five separate experiments).
To assay the immunostimulatory capacity of non-irradiated or irradiated (3000 rad from a ^137Cs source) DC, uninfected, adenovirus-infected, LPS-treated or monocyte-conditioned medium-treated DC were cultured in graded doses with 1×10^5 of allogeneic elutriated T cells in quadruplicate in a 96-well flat-bottom microtiter plate (Falcon). Proliferation was measured on day 5 by thymidine incorporation after a 16 h pulse with [^3H] thymidine (0.5 μCi/well; Amersham Life Science, UK).
as §4

[7] = system: NFκB; details: previously shown by the inventors; cited from earlier work
[8] = system: allo-lymphocytes; assay: Re-stimulation of allo-lymphocytes pre-cultured with PSI-treated DC; assay type: cell-based, human
Description: FIG. 6. Impaired response of allo-lymphocytes pre-cultured with PSI treated or non-treated DC. Lymphocytes were co-cultured with 1/10 number of PSI treated (●, ▴) or non-treated DC (∘,Δ). After 2 days, each DC were removed by CD83, CD86 coated plate. Lymphocytes were cultured for another 4 days using vehicle treated DC (∘,●), or PSI (1 μM) treated DC (Δ,▴). Proliferation was determined by ^3H-TdR uptake assay. (Each point represents mean+/−SEM from three separate experiments).
as §3
Further questions as to the mechanism of the lack of the T cell proliferative response were addressed. It could simply be due to lack of immunogenicity of the DC, or alternatively it could be due to the induction of a form of immunological tolerance or of immune regulation. The mechanism was analysed further by coculture experiments, adding PSI treated DC to untreated DC, and analysing the effect of the mixture on unprimed T cells in the MLR. […] Similar effects have been reported in a variety of tolerance models Zanders et al (1983) Nature 303, 625-627; Zanders et al (1985) J. Immunol. 15, 302-305; Park et al (1997) Eur. J. Immunol. 15, 302-305; and Waldmann & Cubbold (1998) Ann. Rev. Immunol. 16, 619-644 and so we asked whether PSI treated DC induced immunological tolerance. This was assessed by first exposing allogeneic T cells to PSI treated DC for 2 days, and then removing them, by panning with anti CD83 and anti CD86. […]

[9] = system: mature DC; assay: Surface antigen expression on PSI-treated DC (FACScan); assay type: cell-based, human
Description: FIG. 3. Effect of PSI on the expression of surface antigens was studied using monoclonal antibodies, HLA-DR, CD86 (PE conjugated); Pharmingen, San Diego, Calif.). on day 6 after PSI treatment, populations of untreated (green line), PSI (0.1 μM) treated (blue dotted line), PSI (1 μM) treated (red dotted line) were phenotyped with the MoAbs listed above and analysed on FACScan (Becton Dickinson).
as §2

[10] = 6 days with PSI (1 μM) treated DC
[11] = 1 μM PSI, 6 days after treatment

Structure (SMILES): CC[C@H](C)[C@H](NC(=O)OCc1ccccc1)C(=O)N[C@@H](CCC(=O)OC(C)(C)C)C(=O)N[C@@H](C)C(=O)N[C@H](C=O)CC(C)C [PSI, Cbz-Ile-Glu(O-tert-bytyl)-Ala-leucinal] (Cbz-IE(OtBu)AL-aldehyde)
- IFNγ production by T cells in response to PSI-DC ([1]; PSI 1 μM): not produced
- IL-2 production by T cells in response to PSI-DC ([1]; PSI 1 μM): not produced
- IL-4 production by T cells in response to PSI-DC ([1]; PSI 1 μM): unaffected; also recorded: not changed
- inhibition of IFNγ production of T cells exposed to PSI treated DC ([1]; PSI treated DC): more than 90%
- inhibition of IL-2 production of T cells exposed to PSI treated DC ([1]; PSI treated DC): more than 90%
- IL-6 expression from PSI-DC during the MLR [2]: to a lesser extent, IL-6 expression was inhibited; also recorded: not changed
- IL-8 production from PSI-DC during the MLR [2]: unaffected; also recorded: not changed
- IL-12 production by PSI treated DC [2]: Reductions
- TNF expression from PSI-DC during the MLR [2]: inhibited; also recorded: Reductions
- yields of T cells after culture with PSI treated DC ([3]; 6 days culture): lower
- CD3 expression on T lymphocytes [3, 10]: reduced expression
- CD11a (LFA-1) expression on T lymphocytes [3, 10]: only marginally reduced; also recorded: some reduction
- CD25 expression on T lymphocytes [3, 10]: virtually abolished
- CD54 (ICAM-1) expression on T lymphocytes [3, 10]: reduced to a degree similar to CD3; also recorded: some reduction
- reduction of proliferative response by ⅛ or ¼ PSI-DC mixed with untreated DC [4]: 3-5 fold
- PSI concentrations showing some toxicity (propidium iodide staining) [5]: > 5 µM
- T cell proliferation in allogeneic MLR ([6]; DC pretreated with PSI 0.1 μM): no detectable effect
- T cell proliferation in allogeneic MLR ([6]; DC pretreated with PSI 0.5 μM): failure of the T cells to proliferate
- T cell proliferation in allogeneic MLR ([6]; DC pretreated with PSI 1 μM): failure of the T cells to proliferate
- concentrations at which PSI inhibits NFκB activation [7]: up to 1 μM
- response of T cells stimulated with PSI-DC prior to normal DC ([8]; 2 days PSI-DC, then 4 days normal DC): unable to respond; also recorded: lack of response
- response of T cells exposed to PSI-DC on the second round after normal DC ([8]; PSI 1 μM): failed to proliferate
- response of T cells to two rounds of PSI-DC ([8]; PSI 1 μM): did not respond
- CD86 expression on DC [9, 11]: reduced, to virtually background levels; also recorded: marked reduction
- HLA-DR expression on DC [9, 11]: major reduction; also recorded: marked reduction
- HLA-DR expression on DC ([9]; 0.1μ PSI, 6 days after treatment): minimal effect
- CD80 expression on DC ([9]; PSI-treated DC): downregulation
